Test results taken from patent US11400059B2, “Treatment of pain and/or pain related symptoms associated with dysmenorrhea” (ALYRA BIOTECH PTY LTD, priority 2017, dated 2022).

Legend:
Format in all cases: cell-based
hTLR5 = target: T1, hTLR5 (Homo sapiens, UniProt O60602); assay: Human TLR antagonist screening, NF-κB SEAP reporter in HEK293 cells; conditions: antagonist mode, test article 1 μM, +FLA-ST 50 ng/ml, No Sample 34, Control− 1
T1 construct: expressed in transfected cells; host or cells: HEK293
T1 sequence (O60602 21-858): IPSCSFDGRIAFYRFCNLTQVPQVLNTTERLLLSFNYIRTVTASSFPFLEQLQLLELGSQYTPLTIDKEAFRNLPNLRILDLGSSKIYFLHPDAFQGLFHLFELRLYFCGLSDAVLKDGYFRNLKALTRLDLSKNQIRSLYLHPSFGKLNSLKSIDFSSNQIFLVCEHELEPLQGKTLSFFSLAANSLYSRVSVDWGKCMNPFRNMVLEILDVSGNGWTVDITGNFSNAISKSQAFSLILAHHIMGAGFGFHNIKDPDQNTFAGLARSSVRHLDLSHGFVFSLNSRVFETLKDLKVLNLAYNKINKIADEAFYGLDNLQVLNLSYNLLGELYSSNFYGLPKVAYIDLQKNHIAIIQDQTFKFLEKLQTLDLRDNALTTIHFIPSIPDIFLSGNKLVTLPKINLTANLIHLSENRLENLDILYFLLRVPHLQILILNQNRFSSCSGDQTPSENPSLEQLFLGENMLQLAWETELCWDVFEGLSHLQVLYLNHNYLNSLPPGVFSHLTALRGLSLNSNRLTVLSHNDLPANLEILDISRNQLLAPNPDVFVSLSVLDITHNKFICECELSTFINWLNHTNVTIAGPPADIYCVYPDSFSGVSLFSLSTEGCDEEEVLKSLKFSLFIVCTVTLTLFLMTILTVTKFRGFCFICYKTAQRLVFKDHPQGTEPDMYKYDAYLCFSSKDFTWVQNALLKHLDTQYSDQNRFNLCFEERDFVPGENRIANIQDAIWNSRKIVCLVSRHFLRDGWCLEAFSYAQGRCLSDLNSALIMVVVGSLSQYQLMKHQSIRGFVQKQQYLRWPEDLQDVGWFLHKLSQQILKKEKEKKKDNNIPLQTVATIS
Procedure: Toll-Like Receptor (TLR), NOD-Like Receptor (NLR) and C-Type Lectin Receptor (CLR) stimulation were tested by assessing NF-κB activation in HEK293 cells expressing a given TLR, NLR or CLR. The activity of the test articles was tested at one concentration and compared to control ligands. These steps were performed in triplicate. […] In a 96-well plate (200 μL total volume) containing the appropriate cells (50,000-75,000 cells/well), 20 μL of the test article or the positive control ligand was added to the wells. For the antagonist assay, the test article was incubated with the cells, at 37° C. with 5% CO2, for 30 minutes prior to the addition of the positive control ligand to the wells. The media added to the wells was designed for the detection of NF-κB induced SEAP expression. […] Fold induction (ratio of average induced value to average non-induced value) was determined for each TLR, NOD1, NOD2, Dectin-1a, Dectin-1b.

hTLR7 = target: T2, hTLR7 (Homo sapiens, UniProt Q9NYK1); assay: as above; conditions: antagonist mode, test article 1 μM, +CL307 10 ng/ml, No Sample 13, Control− 1
T2 construct: expressed in transfected cells; host or cells: HEK293
T2 sequence (Q9NYK1 27-1049): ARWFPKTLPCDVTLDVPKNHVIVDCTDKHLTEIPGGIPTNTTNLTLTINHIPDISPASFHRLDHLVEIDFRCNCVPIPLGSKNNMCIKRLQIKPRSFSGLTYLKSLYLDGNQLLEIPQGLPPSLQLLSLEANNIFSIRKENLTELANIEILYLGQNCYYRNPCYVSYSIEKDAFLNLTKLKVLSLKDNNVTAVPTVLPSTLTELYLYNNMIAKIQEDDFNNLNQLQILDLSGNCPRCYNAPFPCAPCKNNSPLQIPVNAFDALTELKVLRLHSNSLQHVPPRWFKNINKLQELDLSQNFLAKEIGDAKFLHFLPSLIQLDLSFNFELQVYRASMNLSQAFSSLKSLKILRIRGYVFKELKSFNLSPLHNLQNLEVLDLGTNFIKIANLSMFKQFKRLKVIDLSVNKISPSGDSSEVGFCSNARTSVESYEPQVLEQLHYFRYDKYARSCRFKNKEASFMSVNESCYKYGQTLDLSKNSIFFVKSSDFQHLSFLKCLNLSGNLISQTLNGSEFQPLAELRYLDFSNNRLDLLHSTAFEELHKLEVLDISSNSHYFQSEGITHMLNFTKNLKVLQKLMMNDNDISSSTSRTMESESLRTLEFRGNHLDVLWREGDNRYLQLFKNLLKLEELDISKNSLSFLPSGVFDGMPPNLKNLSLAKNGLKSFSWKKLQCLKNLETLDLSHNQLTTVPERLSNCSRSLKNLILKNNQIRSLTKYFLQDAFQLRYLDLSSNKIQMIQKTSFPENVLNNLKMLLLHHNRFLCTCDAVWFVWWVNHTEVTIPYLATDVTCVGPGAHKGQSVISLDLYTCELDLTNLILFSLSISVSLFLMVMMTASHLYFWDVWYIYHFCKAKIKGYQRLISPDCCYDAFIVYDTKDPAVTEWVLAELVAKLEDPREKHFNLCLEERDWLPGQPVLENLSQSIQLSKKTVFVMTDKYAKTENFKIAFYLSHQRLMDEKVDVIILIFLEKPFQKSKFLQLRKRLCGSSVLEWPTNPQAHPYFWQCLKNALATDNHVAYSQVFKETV
Procedure: Toll-Like Receptor (TLR), NOD-Like Receptor (NLR) and C-Type Lectin Receptor (CLR) stimulation were tested by assessing NF-κB activation in HEK293 cells expressing a given TLR, NLR or CLR. The activity of the test articles was tested at one concentration and compared to control ligands. These steps were performed in triplicate. hTLR7: CL307 at 1 μg/mL Antagonist: 10 ng/mL. In a 96-well plate (200 μL total volume) containing the appropriate cells (50,000-75,000 cells/well), 20 μL of the test article or the positive control ligand was added to the wells. For the antagonist assay, the test article was incubated with the cells, at 37° C. with 5% CO2, for 30 minutes prior to the addition of the positive control ligand to the wells. The media added to the wells was designed for the detection of NF-κB induced SEAP expression. […] Fold induction (ratio of average induced value to average non-induced value) was determined for each TLR, NOD1, NOD2, Dectin-1a, Dectin-1b.

[1] = system: HEK293/Null1 and HEK293/Null2; assay: Antagonist screening on TLR−/NLR− control cell lines stimulated with TNFa; conditions: stimulated with TNFa at 10 ng/mL
Procedure: (§1) Toll-Like Receptor (TLR), NOD-Like Receptor (NLR) and C-Type Lectin Receptor (CLR) stimulation were tested by assessing NF-κB activation in HEK293 cells expressing a given TLR, NLR or CLR. The activity of the test articles was tested at one concentration and compared to control ligands. These steps were performed in triplicate. In a 96-well plate (200 μL total volume) containing the appropriate cells (50,000-75,000 cells/well), 20 μL of the test article or the positive control ligand was added to the wells. For the antagonist assay, the test article was incubated with the cells, at 37° C. with 5% CO2, for 30 minutes prior to the addition of the positive control ligand to the wells. The media added to the wells was designed for the detection of NF-κB induced SEAP expression. After a 16-24 hr incubation the optical density (OD) was read at 650 nm on a Molecular Devices SpectraMax 340PC absorbance detector.

Human TLR2 = target: T3, Human TLR2 (Homo sapiens, UniProt O60603); assay: Human TLR antagonist screening, NF-κB SEAP reporter in HEK293 cells; conditions: antagonist mode, test article 1 μM, +HKLM 1 × 10^6 cells/mL, No Sample 6, Control− 1
T3 construct: expressed in transfected cells; host or cells: HEK293
T3 sequence (O60603 21-784): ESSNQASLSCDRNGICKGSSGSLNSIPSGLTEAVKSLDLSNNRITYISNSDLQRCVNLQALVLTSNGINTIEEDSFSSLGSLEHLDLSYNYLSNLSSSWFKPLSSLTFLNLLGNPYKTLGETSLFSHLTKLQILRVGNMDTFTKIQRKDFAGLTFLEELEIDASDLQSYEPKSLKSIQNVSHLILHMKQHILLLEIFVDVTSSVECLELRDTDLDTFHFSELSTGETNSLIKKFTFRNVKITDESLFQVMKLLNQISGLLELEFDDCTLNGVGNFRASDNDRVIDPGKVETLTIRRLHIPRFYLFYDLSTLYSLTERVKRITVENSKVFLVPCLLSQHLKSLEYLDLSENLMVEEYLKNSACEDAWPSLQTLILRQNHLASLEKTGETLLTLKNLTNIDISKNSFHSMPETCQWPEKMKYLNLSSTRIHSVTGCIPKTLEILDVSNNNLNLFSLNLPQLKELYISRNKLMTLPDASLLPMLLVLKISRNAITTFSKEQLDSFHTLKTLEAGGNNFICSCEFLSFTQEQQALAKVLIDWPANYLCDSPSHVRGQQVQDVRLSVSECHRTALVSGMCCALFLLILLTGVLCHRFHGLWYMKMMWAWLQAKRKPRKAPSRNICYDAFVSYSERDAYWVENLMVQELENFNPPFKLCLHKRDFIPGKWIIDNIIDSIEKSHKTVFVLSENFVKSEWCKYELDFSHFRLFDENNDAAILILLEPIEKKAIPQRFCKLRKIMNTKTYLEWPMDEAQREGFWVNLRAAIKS
Procedure: as §1, with “triplicate. TLR2: […] Antagonist: 1×10^6 cells/mL:” for “triplicate.”, “detector. Fold induction (ratio of average induced value to average non-induced value) was determined for each TLR, NOD1, NOD2, Dectin-1a, Dectin-1b.” for “detector.”

Row | Compound | Fold Induction (hTLR5) | Fold Induction (hTLR5; listed as Ami) | Fold Induction (hTLR7) | Fold Induction (hTLR7; listed as Ami) | effect on TLR−/NLR− control cell lines [1] | Fold Induction (Human TLR2) | Fold Induction (Human TLR2; listed as Ami) | Fold Induction (hTLR7; listed as Nor) | Fold Induction (Human TLR2; listed as Nor)
1 | CN(C)CCC=C1c2ccccc2CCc2ccccc21 [Amitriptyline] | slight inhibitory effect | 33 | slight potentiating effect | 16 | slight inhibitory effect | slight inhibitory effect | 5 | – | –
2 | CNCCC=C1c2ccccc2CCc2ccccc21 [Nortriptyline] | 34 | – | slight potentiating | – | slight inhibitory effect | slight inhibitory effect | – | 16 | 5
